Measurements reported in patent publication US8871680B2, “Herbicidal compositions comprising 4-amino-3-chloro-5-fluoro-6-(4-chloro-2-fluoro-3-methoxyphenyl) pyridine-2-carboxylic acid or a derivative thereof and a di-methoxy-pyrimidine and derivatives thereof” (Dow AgroSciences LLC, priority 2012, dated 2014).

Experiments:
LEFCH [1] = assay: Postemergence foliar-applied weed control, direct seeded rice (greenhouse); format: in vivo, Leptochloa chinensis (L.) Nees
Text: (§1) Seeds or nutlets of the desired test plant species were planted in a soil matrix prepared by mixing a loam or sandy loam soil (e.g., 28.6 percent silt, 18.8 percent clay, and 52.6 percent sand, with a pH of about 5.8 and an organic matter content of about 1.8 percent) and calcareous grit in an 80 to 20 ratio. The soil matrix was contained in plastic pots with a volume of 1 quart and a surface area of 83.6 square centimeters (cm^2). When required to ensure good germination and healthy plants, a fungicide treatment and/or other chemical or physical treatment was applied. The plants were grown for 8-22 days in a greenhouse with an approximate 14 hr photoperiod which was maintained at about 29° C. during the day and 26° C. during the night. Nutrients (Peters Excel® 15-5-15 5-Ca 2-Mg and iron chelate) were applied in the irrigation solution as needed and water was added on a regular basis. Supplemental lighting was provided with overhead metal halide 1000-Watt lamps as necessary. The plants were employed for testing when they reached the first through fourth true leaf stage.
(§2) Treatments consisted of the acid or esters of 4-amino-3-chloro-5-fluoro-6-(4-chloro-2-fluoro-3-methoxy-phenyl)pyridine-2-carboxylic acid (Compound A), each formulated as an SC (suspension concentrate), and various herbicidal components alone and in combination. Forms of compound A were applied on an acid equivalent basis.
(§3) Other herbicidal components were applied on an active ingredient basis and included the dimethoxy-pyrimidine acid acetolactate synthase (ALS)-inhibiting herbicides bispyribac-sodium formulated as Regiment® 80WP, pyribenzoxim (technical grade material), pyriminobac-methyl formulated as Hie-Clean® 1.2% GR dissolved in water, and pyriftalid (technical grade material).
(§4) Treatment requirements were calculated based upon the rates being tested, the concentration of active ingredient or acid equivalent in the formulation, and a 12 mL application volume at a rate of 187 L/ha.
(§5) For treatments comprised of formulated compounds, measured amounts of compounds were placed individually in 25 mL glass vials and diluted in a volume of 1.25% (v/v) Agri-Dex® crop oil concentrated to obtain 12× stock solutions. […] Application solutions were prepared by adding an appropriate amount of each stock solution (e.g., 1 mL) and diluted to the appropriate final concentrations with the addition of 10 mL of an aqueous mixture of 1.25% (v/v) crop oil concentrate so that the final spray solutions contained 1.25+/−0.005% (v/v) crop oil concentrate.
(§6) For treatments comprised of technical compounds, weighed amounts can be placed individually in 25 mL glass vials and dissolved in a volume of 97:3 v/v acetone/DMSO to obtain 12× stock solutions. […] Application solutions can be prepared by adding an appropriate amount of each stock solution (e.g., 1 mL) and diluted to the appropriate final concentrations with the addition of 10 mL of an aqueous mixture of 1.5% (v/v) crop oil concentrate so that the final spray solutions contain 1.25% (v/v) crop oil concentrate. When technical materials are used, the concentrated stock solutions can be added to the spray solutions so that the final acetone and DMSO concentrations of the application solutions are 16.2% and 0.5%, respectively.
(§7) For treatments comprised of formulated and technical compounds, weighed amounts of the technical materials were placed individually in 25 mL glass vials and dissolved in a volume of 97:3 v/v acetone/DMSO to obtain 12× stock solutions, and measured amounts of the formulated compounds were placed individually in 25 mL glass vials and diluted in a volume of 1.5% (v/v) crop oil concentrate or water to obtain 12× stock solutions. […]

ECHCG = assay: as above; format: in vivo, Echinochloa crusgalli (L.) Beauv.
Text: as §1, with “stage. […]” for “stage.”
as §4
For treatments comprised of formulated compounds, measured amounts of compounds were placed individually in 25 mL glass vials and diluted in a volume of 1.25% (v/v) Agri-Dex® crop oil concentrated to obtain 12× stock solutions. […]
as §7

IPOHE = assay: as above; format: in vivo, Ipomoea hederacea Jacq.
Text: as §1, §2, §3, §4, §5, §6, §7

SCPMA = assay: In-water applied weed control, transplanted paddy rice (greenhouse); format: in vivo, Bolboschoenus maritimus (L.) Palla
Protocol: (§8) Weed seeds or nutlets of the desired test plant species were planted in puddled soil (mud) prepared by mixing a shredded, non-sterilized mineral soil (50.5 percent silt, 25.5 percent clay, and 24 percent sand, with a pH of about 7.6 and an organic matter content of about 2.9 percent) and water at a 1:1 volumetric ratio. The prepared mud was dispensed in 365 mL aliquots into 16-ounce (oz.) non-perforated plastic pots with a surface area of 86.59 square centimeters (cm^2) leaving a headspace of 3 centimeters (cm) in each pot. Mud was allowed to dry overnight prior to planting or transplanting. Rice seeds were planted in Sun Gro MetroMix® 306 planting mixture, which typically has a pH of 6.0 to 6.8 and an organic matter content of about 30 percent, in plastic plug trays. Seedlings at the second or third leaf stage of growth were transplanted into 860 mL of mud contained in 32-oz. non-perforated plastic pots with a surface area of 86.59 cm^2 4 days prior to herbicide application. The paddy was created by filling the headspace of the pots with 2.5 to 3 cm of water. When required to ensure good germination and healthy plants, a fungicide treatment and/or other chemical or physical treatment was applied. The plants were grown for 4-22 days in a greenhouse with an approximate 14 hr photoperiod which was maintained at about 29′C during the day and 26° C. during the night. Nutrients were added as Osmocote® (19:6:12, N:P:K+minor nutrients) at 2 g per 16-oz. pot and 4 g per 32-oz. pot. Water was added on a regular basis to maintain the paddy flood, and supplemental lighting was provided with overhead metal halide 1000-Watt lamps as necessary. The plants were employed for testing when they reached the first through fourth true leaf stage.
(§9) Treatments consisted of the acid or esters of 4-amino-3-chloro-5-fluoro-6-(4-chloro-2-fluoro-3-methoxy-phenyl)pyridine-2-carboxylic acid (compound A) each formulated as an SC and various herbicidal components alone and in combination. Forms of compound A were applied on an acid equivalent basis.
(§10) Other herbicidal components were applied on an active ingredient basis and included the dimethoxy-pyrimidine acid acetolactate synthase (ALS)-inhibiting herbicides bispyribac-sodium formulated as Regiment® 80 WP, pyriminobac-methyl formulated as Hie Clean®, and pyriftalid (technical grade material).
(§11) Treatment requirements for each compound or herbicidal component were calculated based upon the rates being tested, the concentration of active ingredient or acid equivalent in the formulation, an application volume of 2 mL per component per pot, and an application area of 86.59 cm^2 per pot.
(§12) For formulated compounds, a measured amount was placed in an individual 100 or 200 mL glass vial and was dissolved in a volume of 1.25% (v/v) Agri-Dex® crop oil concentrate to obtain application solutions.
(§13) For technical grade compounds, a weighed amount was placed in an individual 100 to 200 mL glass vial and was dissolved in a volume of acetone to obtain concentrated stock solutions. […] The concentrated stock solutions obtained were diluted with an equivalent volume of an aqueous mixture containing 2.5% (v/v) crop oil concentrate so that the final application solutions contained 1.25% (v/v) crop oil concentrate.
(§14) Applications were made by injecting with a pipetter appropriate amounts of the application solutions, individually and sequentially, into the aqueous layer of the paddy.
(§15) Control plants were treated in the same manner with the solvent blank. Applications were made so that all treated plant material received the same concentrations of acetone and crop oil concentrate.
(§16) The treated plants and control plants were placed in a greenhouse as described above and water was added as needed to maintain a paddy flood. […]

CYPRO = assay: as above; format: in vivo, Cyperus rotundus L.
Protocol: as §8, §9, §10, §11, §12, §13, §14, §15, §16

FIMMI = assay: as above; format: in vivo, Fimbristylis miliacea (L.) Vahl
Protocol: as §8, §9, §10, §11, §12, §13, §14, §15, §16

DIGSA = assay: Postemergence foliar-applied weed control, direct seeded rice (greenhouse); format: in vivo, Digitaria sanguinalis (L.) Scop.
Text: as §1, §2, §3, §4, §5
as §6, with “When technical materials are used, the concentrated stock solutions can be added to the spray solutions so that the final acetone and DMSO concentrations of the application solutions are 16.2% and 0.5%, respectively.” left out
as §7

LEFCH [2] = assay: In-water applied weed control, transplanted paddy rice (greenhouse); format: in vivo, Leptochloa chinensis (L.) Nees; details: 45 gai/ha
Protocol: as §8, §9, §10, §11, §12, §13, §14
Control plants were treated in the same manner with the solvent blank. […]

ECHCO = assay: as above; format: in vivo, Echinochloa colona (L.) Link; details: 22.5 gai/ha
Protocol: as §8, with “Water was added on a regular basis to maintain the paddy flood, and supplemental lighting was provided with overhead metal halide 1000-Watt lamps as necessary. The plants were employed for testing when they reached the first through fourth true leaf stage.” left out
as §11
For formulated compounds, a measured amount was placed in an individual 100 or 200 mL glass vial and was dissolved in a volume of 1.25% (v/v) Agri-Dex® crop oil concentrate to obtain application solutions. […]

For `COc1c(Cl)ccc(-c2nc(C(=O)OCc3ccccc3)c(Cl)c(N)c2F)c1F` [Compound A Benzyl Ester], the “Visual Weed Control (%)-24 DAA LEFCH Obs” value (LEFCH [1]; 4.38 gae/ha) was 0%, the “Visual Weed Control (%)-20 DAA LEFCH Obs” value (LEFCH [1]; 8.75 gae/ha) was 10% and the “Visual Weed Control (%)-24 DAA LEFCH Obs” value (LEFCH [1]; 8.75 gae/ha) was 0%. The “Visual Weed Control (%)-20 DAA LEFCH Obs” value (LEFCH [1]; 17.5 gae/ha) was 20%, the “Visual Weed Control (%)-22 DAA LEFCH Obs” value (LEFCH [1]; 17.5 gae/ha) was 25% and the “Visual Weed Control (%)-24 DAA LEFCH Obs” value (LEFCH [1]; 17.5 gae/ha) was 10%. For the same molecule, the “Visual Weed Control (%) - 20 DAA ECHCG Obs” value (ECHCG; 8 gae/ha) was 75%, the “Visual Weed Control (%) - 20 DAA ECHCG Obs” value (ECHCG; 16 gae/ha) was 85% and the “Visual Weed Control (%)-24 DAA IPOHE Obs” value (IPOHE; 4.38 gae/ha) was 10%. The “Visual Weed Control (%)-24 DAA IPOHE Obs” value (IPOHE; 8.75 gae/ha) was 15%, the “Visual Weed Control (%)-21 DAA IPOHE Obs” value (IPOHE; 17.5 gae/ha) was 43% and the “Visual Weed Control (%)-24 DAA IPOHE Obs” value (IPOHE; 17.5 gae/ha) was 30%. For the same molecule, the “Visual Weed Control (%)-21 DAA SCPMA Obs” value (SCPMA; 4.38 gae/ha) was 0%, the “Visual Weed Control (%)-21 DAA SCPMA Obs” value (SCPMA; 8.75 gae/ha) was 0% and the “Visual Weed Control (%)-20 DAA SCPMA Obs” value (SCPMA; 35 gae/ha) was 0%. For the same molecule, the “Visual Weed Control (%)-20 DAA SCPMA Obs” value (SCPMA; 35 gae/ha, Table 11) was 0%, the “Visual Weed Control (%)-20 DAA SCPMA Obs” value (SCPMA; 70 gae/ha) was 0% and the “Visual Weed Control (%)-20 DAA CYPRO Obs” value (CYPRO; 4.38 gae/ha) was 50%. For the same molecule, the “Visual Weed Control (%)-21 DAA CYPRO Obs” value (CYPRO; 4.38 gae/ha, Table 11) was 0%, the “Visual Weed Control (%)-21 DAA CYPRO Obs” value (CYPRO; 4.38 gae/ha, Table 13) was 30% and the “Visual Weed Control (%)-21 DAA CYPRO Obs” value (CYPRO; 8.75 gae/ha, Table 11) was 20%. For the same molecule, the “Visual Weed Control (%)-21 DAA CYPRO Obs” value (CYPRO; 8.75 gae/ha, Table 13) was 60%, the “Visual Weed Control (%)-21 DAA CYPRO Obs” value (CYPRO; 17.5 gae/ha) was 10% and the “Visual Weed Control (%)-21 DAA FIMMI Obs” value (FIMMI; 4.38 gae/ha) was 20%.

For `CO/N=C(\C)c1cccc(Oc2nc(OC)cc(OC)n2)c1C(=O)OC` [Pyriminobac-methyl, methyl 2-[(4,6-dimethoxy-2-pyrimidinyl)oxy]-6-[1-(methoxyimino)ethyl]benzoate, reference compound], the “Visual Weed Control (%)-24 DAA LEFCH Obs” value (LEFCH [1]; 11.25 gai/ha) was 0%, the “Visual Weed Control (%)-24 DAA LEFCH Obs” value (LEFCH [1]; 22.5 gai/ha) was 0% and the “Visual Weed Control (%)-24 DAA DIGSA Obs” value (DIGSA; 11.25 gai/ha) was 0%. For the same molecule, the “Visual Weed Control (%)-24 DAA DIGSA Obs” value (DIGSA; 22.5 gai/ha) was 0%, the “Visual Weed Control (%)-24 DAA IPOHE Obs” value (IPOHE; 11.25 gai/ha) was 10% and the “Visual Weed Control (%)-24 DAA IPOHE Obs” value (IPOHE; 11.25 gai/ha, Table 4) was 10%. The “Visual Weed Control (%)-24 DAA IPOHE Obs” value (IPOHE; 22.5 gai/ha) was 10%, the “Visual Weed Control (%)-24 DAA IPOHE Obs” value (IPOHE; 22.5 gai/ha, Table 4) was 10% and the “Visual Weed Control (%)-21 DAA IPOHE Obs” value (IPOHE; 90 gai/ha) was 20%. For the same molecule, the “Visual Weed Control (%)-24 DAA IPOHE Obs” value (IPOHE; 90 gai/ha, second part of Table 3) was 20%, the “Visual Weed Control (%)-21 DAA LEFCH Obs” value (LEFCH [2]) was 80% and the “Visual Weed Control (%)-21 DAA SCPMA Obs” value (SCPMA; 22.5 gai/ha, Table 10) was 0%. The “Visual Weed Control (%)-21 DAA SCPMA Obs” value (SCPMA; 22.5 gai/ha, Table 11) was 0%, the “Visual Weed Control (%)-21 DAA SCPMA Obs” value (SCPMA; 45 gai/ha, Table 10) was 0% and the “Visual Weed Control (%)-21 DAA SCPMA Obs” value (SCPMA; 45 gai/ha, Table 11) was 0%. For the same molecule, the “Visual Weed Control (%)-20 DAA SCPMA Obs” value (SCPMA; 90 gai/ha, Table 10) was 43%, the “Visual Weed Control (%)-20 DAA SCPMA Obs” value (SCPMA; 90 gai/ha, Table 11) was 43% and the “Visual Weed Control (%)-21 DAA CYPRO Obs” value (CYPRO; 22.5 gai/ha) was 0%. For the same molecule, the “Visual Weed Control (%)-21 DAA ECHCO Obs” value (ECHCO) was 40%, the “Visual Weed Control (%)-21 DAA FIMMI Obs” value (FIMMI; 22.5 gai/ha) was 0% and the “Visual Weed Control (%)-21 DAA FIMMI Obs” value (FIMMI; 45 gai/ha) was 0%.
